Laboratory results published in ChEMBL document CHEMBL1146512, “Ketene acetal and spiroacetal constituents of the marine fungus Aigialus parvus BCC 5311” (J Nat Prod, 2004).
Calls of active or inactive are those of the source.

Legend:
Plasmodium falciparum = assay: Antimalarial activity against Plasmodium falciparum K1; assay type: functional, organism-based
[1] = tested on: Mycobacterium tuberculosis; assay: Antitubercular activity against Mycobacterium tuberculosis H37Ra; assay type: functional, organism-based
Human alphaherpesvirus 1 = assay: Antiviral activity against HSV1; assay type: functional, organism-based
Candida albicans = assay: Antifungal activity against Candida albicans; assay type: functional, organism-based
KB = assay: Cytotoxicity against human KB cells; assay type: functional, cell-based
BC1 = assay: Cytotoxicity against human BC1 cells; assay type: functional, cell-based

Measured: Activity

CCCCCCC[C@@H]1OC2=C(C(=O)[C@H](C)O2)[C@H](O)[C@@]1(C)O
inactive: all assays above

COc1cc(O)c2c(c1)[C@@H]([C@H]1C[C@H](O)[C@H](O)[C@@]3(C=CC[C@H](C)O3)O1)OC2=O
inactive: all assays above
